The subject of this test is HCT-116. The test can be described thus: Cytotoxicity against human HCT116 cells after 72 hrs by MTS/PMS bioreduction assay. It is filed as functional, cell-based. The note with it: HCT-116, 72 h.
Consider `CN[C@@H]1CC[C@]2(C)[C@H]3CC[C@]4(C)[C@@H]([C@H](C)CC5NCCC5C(C)C)CC[C@H]4C3=CC[C@H]2[C@H]1OC(C)=O` (some centres undefined), for which half-maximal inhibition (IC50) required 1.4 µM.

On to `CC(C)=C1CCN2[C@@H]1C[C@@H](C)[C@H]1[C@@H]2C[C@H]2C3=CC[C@H]4C[C@H](N(C)C)CC[C@]4(C)[C@H]3CC[C@]12C` [PLAKINAMINE I], for which the IC50 (commonly the concentration needed to halve the response being measured) was found to be 10.6 µM.

Consider `CC(C)C1CCN(C)C1C[C@@H](C)[C@H]1CC[C@H]2C3=CC[C@H]4[C@H](N)C=CC[C@]4(C)[C@H]3CC[C@]12C` (some centres undefined) [PLAKINAMINE J], for which the IC50 came to 6.1 µM.

On to `CN[C@@H]1CC[C@]2(C)[C@H]3CC[C@]4(C)[C@@H]([C@H](C)CC5NCCC5=C(C)C)CC[C@H]4C3=CC[C@H]2[C@H]1OC(C)=O` (some centres undefined) [PLAKINAMINE K], for which inhibition was half-maximal at 1.4 µM (IC50).

Values taken from ChEMBL document CHEMBL1147257, “New cytotoxic steroidal alkaloids from the Philippine sponge Corticium niger” (J Nat Prod, 2003).
